A short description of series [1]: Cyclic voltammetry, first half-wave potential. The format is physicochemical. The note with it: for E^I1/2 (first half-wave potential) / −E^I1/2: acetonitrile, Pt electrode, vs non-aqueous Ag/Ag+; for −E^I1/2: sign inverted, 0.1 M tetraethylammonium tetrafluoroborate, sweep rate 100 mV s^−1. The protocol: The redox potentials of the members of the series were measured by cyclic voltammetry in acetonitrile as solvent, at room temperature, using a platinum electrode and 0.1 M tetraethylammonium tetrafluoroborate as the supporting electrolyte. […] The voltammograms were run in the potential range 0–2.0 V versus non-aqueous Ag/Ag+. The first half-wave potential values, E^I1/2, evaluated from the voltammograms obtained at a sweep rate of 100 mV s^−1, are summarized in Table 3.

The test system of series [2] is AGS human gastric adenocarcinoma cells. Kind of series: MTT cell growth inhibition assay, AGS gastric adenocarcinoma cells, 72 h exposure. The format is cell-based. Conditions: for IC50: human gastric adenocarcinoma cell line, MTT, 72 h, mean of six determinations, read-out: IC50 ± SEM AGS; for selectivity index (IS), AGS: MRC-5 relative to AGS.
Series [3] has as its system HL-60 human promyelocytic leukemia cells. Kind of series: MTT cell growth inhibition assay, HL-60 promyelocytic leukemia cells, 72 h exposure. The note with it: for IC50: Homo sapiens, HL-60, promyelocytic leukemia cell line, MTT, 72 h, mean of six determinations, read-out: IC50 ± SEM HL-60. Format: cell-based.
The subject of series [4] is MRC-5 normal human lung fibroblasts. Kind of series: MTT cell growth inhibition assay, MRC-5 normal lung fibroblasts, 72 h exposure. The note with it: MRC5, 72 h, read-out: IC50 ± SEM MRC-5.
Protocol: Aminoisoquinolinequinones 5a–h and 6a–f were evaluated for in vitro antiproliferative activity against normal human lung fibroblast MRC-5 and two human cancer cells lines: AGS gastric adenocarcinoma and HL-60 promyelocytic leukemia cells, in 72 h drugs exposure assays. The antiproliferative activity of the new compounds was measured using conventional microculture tetrazolium reduction assays [25, 26, 27].
The cell lines used in this work were obtained from the American Type Culture Collection (ATCC, Manasas, VA, USA). […] The cells were stored in medium containing 10% glycerol in liquid nitrogen. […] Cells were sub-cultured once a week and the medium was changed every two days. Cells were grown in the following media: MRC-5 in Eagle minimal essential medium (EMEM), AGS cells in Ham F-12, and HL-60 in suspension in RPM1. The EMEM medium contained 2 mM L-glutamine, 1 mM sodium pyruvate and 1.5 g/L sodium hydrogen carbonate. Ham F-12 was supplemented with 2 mM L-glutamine and 1.5 g/L sodium hydrogen carbonate. RPM1 medium containing 1mM sodium pyruvate and 2.0 g/L sodium bicarbonate. […] For the experiments, cells were plated at a density of 50,000 cells/mL in 96-well plates. One day after seeding, the cells were treated with the medium containing the compounds at concentrations ranging from 0 up to 100 μM during 3 days. […] The compounds were dissolved in DMSO (1% final concentration) and complete medium. Untreated cells (medium containing 1% DMSO) were used as controls. At the end of the incubation, the MTT reduction (3-(4,5-dimethylthiazol-2-yl)-2,5-diphenyltetrazolium bromide) assay was carried out to determine cell viability. The final concentration of MTT was 1 mg/mL. The culture medium containing the compounds under evaluation, was removed from each well by means by vacuum aspiration before adding the MTT solution. MTT metabolite was dissolved adding 100 µL of ethanol (acidified with HCl). The plates were shaken for 10 min and the absorbance was measured at 550 nm using a Universal Microplate Reader (ELx800, Bio-Tek Instruments Inc., Winnoski, VT, USA). Six replicates for each concentration were used and the values were averaged. […] The IC50 value was obtained adjusting the dose-response curve to a sigmoidal model (a + (b − a)/1 + 10^(x − c)), where c = log IC50.

Where only a bound is given, the exact number is not on record here.

For the molecule `COC(=O)c1c(C)ncc2c1C(=O)C=CC2=O` [3a], in series [1], the “E^I1/2 (first half-wave potential)” value is recorded as −352 mV and the “−E^I1/2” value was 352 mV.

One may read the melting point as the temperature of the solid-liquid transition. As for `COC(=O)c1c(C)nc(-c2ccccc2)c2c1C(=O)C=CC2=O` [3b, Methyl 3-methyl-5,8-dioxo-1-phenyl-5,8-dihydroisoquinoline-4-carboxylate], the melting point is 175 to 176.5 °C. Besides, the “−E^I1/2” value in series [1] was found to be 399 mV.

The molecule `COC(=O)c1c(C)nc(-c2cccs2)c2c1C(=O)C=CC2=O` [3c, Methyl 3-methyl-5,8-dioxo-1-(thiophen-2-yl)-5,8-dihydroisoquinoline-4-carboxylate] came in with a melting point of 140 to 142.5 °C. For the same molecule, in series [1], the “−E^I1/2” value worked out at 392 mV.

Regarding `COC(=O)c1c(C)nc(-c2ccco2)c2c1C(=O)C=CC2=O` [3d, Methyl 1-(furan-2-yl)-3-methyl-5,8-dioxo-5,8-dihydroisoquinoline-4-carboxylate], the melting point was 159.5 to 160.5 °C. For the same molecule, in series [1], the “−E^I1/2” value is on record as 415 mV.

The molecule `CC(=O)c1c(C)ncc2c1C(=O)C=CC2=O` [4a, 4-Acetyl-3-methylisoquinoline-5,8-dione] returned a melting point of 146 to 148 °C. In series [1], the “E^I1/2 (first half-wave potential)” value is recorded as −344 mV and the “−E^I1/2” value is recorded as 344 mV.

Turning to `CC(=O)c1c(C)nc(-c2ccccc2)c2c1C(=O)C=CC2=O` [4b, 4-Acetyl-3-methyl-1-phenylisoquinoline-5,8-dione], the melting point is 162.5 to 164 °C. In addition, the “−E^I1/2” value in series [1] was determined as 416 mV.

`CC(=O)c1c(C)nc(-c2cccs2)c2c1C(=O)C=CC2=O` [4c, 4-Acetyl-3-methyl-1-(thiophen-2-yl)isoquinoline-5,8-dione] showed a melting point of 161.5 to 163 °C. Further, the “−E^I1/2” value in series [1] is listed as 430 mV.

The molecule `CC(=O)c1c(C)nc(-c2ccco2)c2c1C(=O)C=CC2=O` [4d, 4-Acetyl-1-(furan-2-yl)-3-methylisoquinoline-5,8-dione] yielded a melting point of 159 to 160 °C. Besides, the “−E^I1/2” value in series [1] was 384 mV.

As usually defined, the IC50 is the concentration needed to halve the response being measured. Regarding `COC(=O)c1c(C)ncc2c1C(=O)C=C(Nc1ccccc1)C2=O` [5a], the figures for the IC50 in series [2], in series [3] and in series [4] were 1.1 ± 0.03 µM, 14.8 ± 0.74 µM and 2.7 ± 0.6 µM, respectively. The “−E^I1/2” value in series [1] came out at 563 mV.

Consider `COC(=O)c1c(C)ncc2c1C(=O)C=C(Nc1ccc(OC)cc1)C2=O` [5b], for which the values for the IC50 in series [2], in series [3] and in series [4] were 1.1 ± 0.1 µM, 3.8 ± 0.07 µM and 2.8 ± 0.8 µM, respectively. In addition, in series [1], the “−E^I1/2” value came out at 551 mV.

The molecule `COC(=O)c1c(C)nc(-c2ccccc2)c2c1C(=O)C=C(Nc1ccccc1)C2=O` [5c, Methyl 3-methyl-5,8-dioxo-1-phenyl-7-(phenylamino)-5,8-dihydroisoquinoline-4-carboxylate] came in with a melting point of 169.9 to 171.4 °C. In series [2], the IC50 turned out to be 2.52 ± 0.17 µM. In addition, in series [3], the IC50 was determined as 4.39 ± 0.26 µM. Besides, the “−E^I1/2” value in series [1] was 560 mV. Besides, the IC50 in series [4] turned out to be 5.91 ± 0.36 µM.

`COC(=O)c1c(C)nc(-c2ccccc2)c2c1C(=O)C=C(Nc1ccc(OC)cc1)C2=O` [5d, Methyl 7-(4-methoxyphenylamino)-3-methyl-5,8-dioxo-1-phenyl-5,8-dihydroisoquinoline-4-carboxylate]: the melting point is 202 to 203.5 °C. In addition, the “antiproliferative activity on AGS cancer cell line (in words)” value in series [2] (effect of phenyl group inserted at 1-position of 5b) is recorded as “suppression of the antiproliferative activity”. In addition, the IC50 in series [2] is greater than 100 µM. The IC50 in series [3] was greater than 100 µM. Besides, the “−E^I1/2” value in series [1] was determined as 583 mV. Also, in series [4], the IC50 was greater than 100 µM.

The molecule `COC(=O)c1c(C)nc(-c2cccs2)c2c1C(=O)C=C(Nc1ccccc1)C2=O` [5e, Methyl 3-methyl-5,8-dioxo-7-(phenylamino)-1-(thiophen-2-yl)-5,8-dihydroisoquinoline-4-carboxylate] yielded a melting point of 163.3 to 165.3 °C. In addition, the IC50 in series [2] was found to be 4.24 ± 0.21 µM. The IC50 in series [3] came out at 5.19 ± 0.31 µM. The “−E^I1/2” value in series [1] is reported as 565 mV. In addition, the IC50 in series [4] was 9.89 ± 0.51 µM.

`COC(=O)c1c(C)nc(-c2cccs2)c2c1C(=O)C=C(Nc1ccc(OC)cc1)C2=O` [5f, Methyl 7-(4-methoxyphenylamino)-3-methyl-5,8-dioxo-1-(thiophen-2-yl)-5,8-dihydroisoquinoline-4-carboxylate] yielded a melting point of 214 to 216 °C. In addition, the IC50 in series [2] amounted to 3.28 ± 0.13 µM. The half-maximal inhibitory concentration (IC50) in series [3] was 10.26 ± 0.09 µM. Also, the “−E^I1/2” value in series [1] came to 583 mV. The IC50 in series [4] is 9.19 ± 0.53 µM.

Consider `COC(=O)c1c(C)nc(-c2ccco2)c2c1C(=O)C=C(Nc1ccccc1)C2=O` [5g, Methyl 1-(2-furan-2-yl)-3-methyl-5,8-dioxo-7-(phenylamino)-5,8-dihydroisoquinoline-4-carboxylate], for which the melting point fell in the range of 248 to 249 °C. Also, in series [2], the IC50 amounted to 1.79 ± 0.11 µM. Also, in series [3], the IC50 was 5 ± 0.35 µM. For the same molecule, in series [1], the “−E^I1/2” value is recorded as 554 mV. The IC50 in series [4] was found to be 4.72 ± 0.29 µM.

Molecule `COC(=O)c1c(C)nc(-c2ccco2)c2c1C(=O)C=C(Nc1ccc(OC)cc1)C2=O` [5h, Methyl 1-(2-furan-2-yl)-7-(4-methoxyphenylamino)-3-methyl-5,8-dioxo-5,8-dihydroisoquinoline-4-carboxylate] returned a melting point of 144 to 146 °C. Also, in series [2], the IC50 is 1.83 ± 0.11 µM. Besides, in series [3], the IC50 was 8.04 ± 0.49 µM. Also, the “−E^I1/2” value in series [1] came to 577 mV. For the same molecule, in series [4], the IC50 is 4.58 ± 0.35 µM.

`CC(=O)c1c(C)ncc2c1C(=O)C=C(Nc1ccccc1)C2=O` [6a, 4-Acetyl-3-methyl-7-(phenylamino)isoquinoline-5,8-dione] yielded a melting point of 178 to 180 °C. For the same molecule, in series [2], the “selectivity index (IS), AGS” value came out at 3.08 and the IC50 worked out at 1.19 ± 0.07 µM. Besides, the IC50 in series [3] turned out to be 1.24 ± 0.06 µM. Also, the “selectivity index (IS), HL-60” value in series [3] (MRC-5 relative to HL-60) amounted to 2.96. In addition, in series [1], the E^I1/2 (half-wave potential) was -464 mV, the “E^I1/2 (first half-wave potential)” value was −464 mV and the “−E^I1/2” value worked out at 464 mV. Moreover, the IC50 in series [4] stood at 3.67 ± 0.22 µM.

`CC(=O)c1c(C)nc(-c2ccccc2)c2c1C(=O)C=C(Nc1ccccc1)C2=O` [6b, 4-Acetyl-3-methyl-1-phenyl-7-(phenylamino)isoquinoline-5,8-dione] displayed a melting point of 181.5 to 183 °C. The IC50 in series [2] came out at 2.21 ± 0.09 µM. Further, in series [3], the IC50 is 4.74 ± 0.37 µM. The “−E^I1/2” value in series [1] is 588 mV. In addition, in series [4], the IC50 amounted to 5.51 ± 0.22 µM.

Consider `CC(=O)c1c(C)nc(-c2cccs2)c2c1C(=O)C=C(Nc1ccccc1)C2=O` [6c, 4-Acetyl-3-methyl-7-(phenylamino)-1-(thiophen-2-yl)isoquinoline-5,8-dione], for which the melting point lay within 93.5 to 94.5 °C. Also, in series [2], the IC50 is greater than 100 µM. For the same molecule, the IC50 in series [3] was greater than 100 µM. Further, the “−E^I1/2” value in series [1] turned out to be 576 mV. In addition, in series [4], the IC50 is greater than 100 µM.

As to `CC(=O)c1c(C)nc(-c2ccco2)c2c1C(=O)C=C(Nc1ccccc1)C2=O` [6d, 4-Acetyl-1-(2-furyl)-3-methyl-7-(phenylamino)isoquinoline-5,8-dione], the melting point was in the range of 187 to 188.5 °C. Moreover, the concentration for half-maximal inhibition (IC50) in series [2] came to 1.79 ± 0.11 µM. Further, the IC50 in series [3] was 8.19 ± 0.57 µM. Besides, the “−E^I1/2” value in series [1] came to 533 mV. Moreover, the IC50 in series [4] was 5.72 ± 0.24 µM.

Take `COc1ccc(NC2=CC(=O)c3c(C(C)=O)c(C)nc(-c4ccccc4)c3C2=O)cc1` [6e, 4-Acetyl-7-(4-methoxyphenylamino)-3-methyl-1-phenylisoquinoline-5,8-dione]: the melting point is 162 to 163 °C. Besides, the IC50 in series [2] came to 4.66 ± 0.28 µM. Besides, the IC50 in series [3] was determined as 9.36 ± 0.72 µM. Moreover, the “−E^I1/2” value in series [1] was 570 mV. For the same molecule, the IC50 in series [4] amounted to 16.1 ± 1.11 µM.

`COc1ccc(NC2=CC(=O)c3c(C(C)=O)c(C)nc(-c4cccs4)c3C2=O)cc1` [6f, 4-Acetyl-7-(4-methoxyphenylamino)-3-methyl-1-(thiophen-2-yl)isoquinoline-5,8-dione] yielded a melting point of 188.5 to 190 °C. In series [2], the “selectivity index (IS), AGS” value was greater than 23 and the IC50 amounted to 4.28 ± 0.21 µM. Besides, the IC50 in series [3] was greater than 100 µM. Moreover, the “−E^I1/2” value in series [1] is recorded as 576 mV. Further, the IC50 in series [4] was greater than 100 µM.

The values are drawn from publication PMC6271619, “Synthesis, Half-Wave Potentials and Antiproliferative Activity of 1-Aryl-substituted Aminoisoquinolinequinones” (Molecules, 2014).
